Reference: US8609812B2, “Use of β-2-microglobulin to assess glomerular alterations and damage in the kidney” (Novartis AG, priority 2007, dated 2013)

Tested on: kidney
Experiment: rat in vivo studies, histopathology of kidney
Excerpt: Results of in vivo studies and histopathology. All 10 rat in vivo studies were successfully conducted.
In FIG. 2, the distributions of grades of the histopathology assessment are shown. The predominance of grade 1 and grade 2 findings and the absence of grade 5 lesions indicate that the goal of inducing mainly mild nephrotoxicity has been achieved. The considerable number of grade 1 and some grade 2 findings in the vehicle-dosed and the hepatotoxicant-dosed animals indicates the level of sensitivity of the histopathology assessment performed in this project. No significant dose-dependent nephrotoxicity was induced by the hepatotoxicants. In FIG. 3 a detailed list of all reported localized lesions, including the number of occurrences for each grade, separated by nephrotoxicant-dosed animals and the control animals (vehicle-dosed and hepatotoxicant-dosed) is shown. Seventy-five different localized finding were observed.
The different types of lesions were usually not observed in an isolated fashion, but typically in a highly correlated manner representing different molecular processes. In FIG. 4, all histopathology findings are shown for the cisplatin study. […] In addition, a logical sequence of molecular processes along the dose- and time-ordered animals can be observed. […]

Row | Compound | renal histopathology findings, sequence of processes (rat, in vivo) | histopathology findings in the kidney (ANIT study, vehicle or different doses)
1 | N.N.[Cl][Pt][Cl] [cisplatin] | Necrosis as a consequence of damage is seen, and then regeneration processes such as basophilia and mitosis are seen | –
2 | S=C=Nc1cccc2ccccc12 [ANIT, alpha-naphtylisothiocyanate] | – | not in the kidney
